From patent US20260092071A1, “COMPOUNDS AND COMPOSITIONS AS SMARCA2/4 DEGRADERS AND USES THEREOF” (REGENTS OF THE UNIVERSITY OF MICHIGAN, priority 2022, published 2026) come the findings set out here.

Assay [1] deals with SMARCA4 (Homo sapiens, UniProt P51532). Put plainly: HiBit assay in engineered HT1080 CRISPR knock-in cell, 6 hrs (B series), SMARCA4. The class given is cell-based. The settings on record: 6 hrs incubation; for DC50: HT1080 CRISPR knock-in cells, read-out: SMARC A4 HT1080 HiBit DC50; for Dmax: HT-1080, HT1080 CRISPR knock-in cells, read-out: SMARC A4 HT1080 HiBit Dmax(%). On the procedure:
(§1) The HiBit assay was performed using engineered HT1080 CRISPR knock-in cell utilizing the Nano-Glo HiBiT Lytic Detection System from Promega, Cat #N3040. Compounds were transferred, 25 nL DMSO or test compounds (final DMSO @ 0.1%) to intermediate plates (Corning3570) using ECHO550. Cells were seeded onto compounds at 2000 cells/25 μL/well and incubated for 6 hrs in a tissue culture incubator at 37° C. and 5% CO2. The LgBiT Protein was diluted at 1:100 and the Nano-Glo® HiBIT Lytic Substrate 1:50 into an appropriate volume of room temperature using the Nano-Glo® HiBiT Lytic Buffer. At the end of compound incubation time, 15 ul of the detection reagent was added to each well (without LgBiT for negative control wells) using the Thermo Scientific multidrop combi. The plate was shaken for 10 mins at RT using Combi. After briefly centrifugation (2000 rpm 1 mins), plate was read on Envision (Ultrasensitive luminescence model).
On the technique in general: The HiBiT peptide binds its large partner to form an active luciferase.

The target in assay [2] is SMARCA2 (Homo sapiens, UniProt P51531). The assay can be described thus: HiBit assay in engineered HT1080 CRISPR knock-in cell, 6 hrs (B series), SMARCA2. In kind it is cell-based. As to conditions: 6 hrs incubation; for DC50: HT1080 CRISPR knock-in cells, read-out: SMARC A2 HT1080 HiBit DC50; for Dmax: HT-1080, HT1080 CRISPR knock-in cells, read-out: SMARC A2 HT1080 HiBit Dmax (%). The procedure: as §1
Chain of SMARCA2 (P51531 whole entry): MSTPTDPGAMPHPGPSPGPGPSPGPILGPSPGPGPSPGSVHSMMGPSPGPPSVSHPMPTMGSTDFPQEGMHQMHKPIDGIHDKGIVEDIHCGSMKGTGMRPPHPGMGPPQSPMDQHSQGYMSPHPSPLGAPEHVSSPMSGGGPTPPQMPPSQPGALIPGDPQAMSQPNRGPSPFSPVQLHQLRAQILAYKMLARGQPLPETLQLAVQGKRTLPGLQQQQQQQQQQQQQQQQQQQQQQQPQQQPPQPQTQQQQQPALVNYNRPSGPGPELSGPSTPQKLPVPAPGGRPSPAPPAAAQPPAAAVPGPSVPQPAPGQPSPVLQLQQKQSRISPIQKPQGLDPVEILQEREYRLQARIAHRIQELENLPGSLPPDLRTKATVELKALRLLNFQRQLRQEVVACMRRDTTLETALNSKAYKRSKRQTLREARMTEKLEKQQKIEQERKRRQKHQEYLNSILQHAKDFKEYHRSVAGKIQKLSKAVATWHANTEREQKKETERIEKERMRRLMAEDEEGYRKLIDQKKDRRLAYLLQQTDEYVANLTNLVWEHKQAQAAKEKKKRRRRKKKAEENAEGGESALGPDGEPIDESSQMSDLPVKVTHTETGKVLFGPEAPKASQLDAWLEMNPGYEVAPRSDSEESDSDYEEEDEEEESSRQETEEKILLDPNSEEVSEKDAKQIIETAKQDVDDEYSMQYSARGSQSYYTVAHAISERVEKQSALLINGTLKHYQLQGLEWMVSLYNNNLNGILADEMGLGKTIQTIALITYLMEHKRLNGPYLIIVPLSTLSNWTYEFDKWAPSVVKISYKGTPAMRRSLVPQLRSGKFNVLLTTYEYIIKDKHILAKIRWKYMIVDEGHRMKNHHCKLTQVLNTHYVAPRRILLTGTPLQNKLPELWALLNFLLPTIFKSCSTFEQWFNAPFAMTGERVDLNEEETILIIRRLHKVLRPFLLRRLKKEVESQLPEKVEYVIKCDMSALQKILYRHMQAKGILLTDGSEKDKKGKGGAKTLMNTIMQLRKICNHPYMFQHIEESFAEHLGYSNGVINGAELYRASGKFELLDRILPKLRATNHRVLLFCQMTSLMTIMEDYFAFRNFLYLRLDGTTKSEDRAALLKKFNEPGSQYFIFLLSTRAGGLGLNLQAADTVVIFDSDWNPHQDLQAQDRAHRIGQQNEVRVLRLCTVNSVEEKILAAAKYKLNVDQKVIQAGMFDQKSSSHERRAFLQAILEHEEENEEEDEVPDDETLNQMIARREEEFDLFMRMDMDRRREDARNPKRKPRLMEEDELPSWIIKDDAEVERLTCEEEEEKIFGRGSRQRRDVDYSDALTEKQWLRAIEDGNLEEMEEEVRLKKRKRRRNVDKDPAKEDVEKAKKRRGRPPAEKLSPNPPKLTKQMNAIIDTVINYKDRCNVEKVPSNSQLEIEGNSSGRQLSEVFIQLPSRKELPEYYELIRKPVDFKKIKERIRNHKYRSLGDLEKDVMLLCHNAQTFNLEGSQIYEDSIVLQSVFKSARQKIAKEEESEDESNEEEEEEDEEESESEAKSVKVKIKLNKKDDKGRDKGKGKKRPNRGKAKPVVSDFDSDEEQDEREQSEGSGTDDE

Chain of SMARCA4 (P51532 whole entry): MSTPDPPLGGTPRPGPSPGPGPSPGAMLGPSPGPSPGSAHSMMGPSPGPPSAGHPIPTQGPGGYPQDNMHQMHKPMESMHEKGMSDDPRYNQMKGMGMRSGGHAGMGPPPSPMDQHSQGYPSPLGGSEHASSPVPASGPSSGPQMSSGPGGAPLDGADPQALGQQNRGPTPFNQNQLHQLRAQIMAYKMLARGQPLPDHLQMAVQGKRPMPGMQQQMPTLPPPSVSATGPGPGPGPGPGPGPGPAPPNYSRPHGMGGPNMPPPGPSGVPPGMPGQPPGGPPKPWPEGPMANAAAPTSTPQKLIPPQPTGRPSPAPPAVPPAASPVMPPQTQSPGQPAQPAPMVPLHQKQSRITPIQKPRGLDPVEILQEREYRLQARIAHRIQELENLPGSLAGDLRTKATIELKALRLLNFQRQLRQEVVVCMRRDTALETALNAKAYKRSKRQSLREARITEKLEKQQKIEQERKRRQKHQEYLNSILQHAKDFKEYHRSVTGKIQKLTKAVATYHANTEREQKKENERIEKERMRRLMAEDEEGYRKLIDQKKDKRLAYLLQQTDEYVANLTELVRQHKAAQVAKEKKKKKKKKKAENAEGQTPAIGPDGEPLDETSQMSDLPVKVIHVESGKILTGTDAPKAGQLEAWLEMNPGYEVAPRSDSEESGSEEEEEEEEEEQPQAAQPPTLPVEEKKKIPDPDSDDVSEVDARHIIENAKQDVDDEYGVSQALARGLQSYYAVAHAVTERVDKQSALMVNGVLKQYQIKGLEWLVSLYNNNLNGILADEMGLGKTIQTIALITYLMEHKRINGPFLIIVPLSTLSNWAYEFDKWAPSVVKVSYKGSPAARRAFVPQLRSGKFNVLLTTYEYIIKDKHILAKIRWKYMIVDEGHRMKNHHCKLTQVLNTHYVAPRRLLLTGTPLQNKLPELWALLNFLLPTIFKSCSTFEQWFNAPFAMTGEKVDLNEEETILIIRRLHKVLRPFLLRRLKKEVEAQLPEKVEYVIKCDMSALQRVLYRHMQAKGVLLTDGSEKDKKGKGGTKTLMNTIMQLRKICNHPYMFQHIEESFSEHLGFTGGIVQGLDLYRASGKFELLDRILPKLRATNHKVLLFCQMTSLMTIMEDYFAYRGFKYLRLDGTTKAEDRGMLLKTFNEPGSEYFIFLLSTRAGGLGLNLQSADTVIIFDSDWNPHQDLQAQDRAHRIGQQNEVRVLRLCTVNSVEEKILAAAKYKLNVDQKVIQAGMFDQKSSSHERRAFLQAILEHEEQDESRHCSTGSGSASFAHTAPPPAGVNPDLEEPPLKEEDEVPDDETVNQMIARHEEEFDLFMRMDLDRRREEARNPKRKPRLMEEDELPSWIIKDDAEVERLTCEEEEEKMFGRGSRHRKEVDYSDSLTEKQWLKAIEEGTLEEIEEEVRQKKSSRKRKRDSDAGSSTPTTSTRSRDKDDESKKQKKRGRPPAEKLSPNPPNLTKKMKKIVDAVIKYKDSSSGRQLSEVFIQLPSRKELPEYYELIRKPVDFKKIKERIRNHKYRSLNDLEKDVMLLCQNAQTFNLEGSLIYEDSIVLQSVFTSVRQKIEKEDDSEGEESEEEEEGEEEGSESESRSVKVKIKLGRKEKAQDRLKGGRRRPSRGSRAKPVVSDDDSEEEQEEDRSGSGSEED

Consider `Cc1nc(C)c(-c2ccc([C@H](C)NC(=O)[C@@H]3C[C@@H](O)CN3C(=O)[C@@H](n3cc([C@H]4CC[C@H](CN5CCC(c6ccc7c(c6)-n6c(nc(=O)c8c(Cl)cccc86)C7(C)C)CC5)CC4)nn3)C(C)(C)C)cc2)s1` [Compound B164, (2S,4R)-1-((S)-2-(4-((1r,4S)-4-((4-(4-chloro-7,7-dimethyl-5-oxo-5,7-dihydroindolo[1,2-a]quinazolin-10-yl)piperidin-1-yl)methyl)cyclohexyl)-1H-1,2,3-triazol-1-yl)-3,3-dimethylbutanoyl)-N-((S)-1-(4-(2,4-dimethylthiazol-5-yl)phenyl)ethyl)-4-hydroxypyrrolidine-2-carboxamide], for which, in assay [1], the DC50 was less than 100 nM and the Dmax lay within 70 to 90%. In assay [2], the DC50 was less than 100 nM and the Dmax was more than 90%.
As to `C#Cc1ccc([C@H](C)NC(=O)[C@@H]2C[C@@H](O)CN2C(=O)[C@H](C(C)C)n2cc([C@H]3CC[C@H](CN4CCC(c5ccc6c(c5)-n5c(nc(=O)c7c(Cl)cccc75)C6(C)C)CC4)CC3)nn2)cc1` [Compound B128, (2S,4R)-1-((S)-2-(4-((1r,4S)-4-((4-(4-chloro-7,7-dimethyl-5-oxo-5,7-dihydroindolo[1,2-a]quinazolin-10-yl)piperidin-1-yl)methyl)cyclohexyl)-1H-1,2,3-triazol-1-yl)-3-methylbutanoyl)-N-((S)-1-(4-ethynylphenyl)ethyl)-4-hydroxypyrrolidine-2-carboxamide], in assay [1], the DC50 is less than 100 nM and the Dmax is 70 to 90%. In assay [2], the DC50 is less than 100 nM and the Dmax was more than 90%.
As for `C[C@H](NC(=O)[C@@H]1C[C@@H](O)CN1C(=O)[C@@H](NC(=O)[C@H]1CC[C@H](C(=O)N2CCC(c3ccc4c(c3)-n3c(nc(=O)c5c(Cl)cccc53)C4(C)C)CC2)CC1)C(C)(C)C)c1ccc(-c2ncnn2C)cc1` [Compound B65, (2S,4R)-1-((S)-2-((1r,4S)-4-(4-(4-chloro-7,7-dimethyl-5-oxo-5,7-dihydroindolo[1,2-a]quinazolin-10-yl)piperidine-1-carbonyl)cyclohexane-1-carboxamido)-3,3-dimethylbutanoyl)-4-hydroxy-N-((S)-1-(4-(1-methyl-1H-1,2,4-triazol-5-yl)phenyl)ethyl)pyrrolidine-2-carboxamide], in assay [1], the DC50 is more than 1000 nM and the Dmax is less than 50%. For the same compound, in assay [2], the DC50 was in the range of 100 to 500 nM and the Dmax is less than 50%.
As to `Cc1ncsc1-c1ccc([C@H](C)NC(=O)[C@@H]2C[C@@H](O)CN2C(=O)[C@@H](NC(=O)[C@H]2CC[C@H](Cn3cc(-c4ccc5c(c4)C(C)(C)c4nc(=O)c6c(Cl)cccc6n4-5)cn3)CC2)C(C)(C)C)cc1` [Compound B48, (2S,4R)-1-((S)-2-((1r,4S)-4-((4-(4-chloro-7,7-dimethyl-5-oxo-5,7-dihydroindolo[1,2-a]quinazolin-9-yl)-1H-pyrazol-1-yl)methyl)cyclohexane-1-carboxamido)-3,3-dimethylbutanoyl)-4-hydroxy-N—((S)-1-(4-(4-methylthiazol-5-yl)phenyl)ethyl)pyrrolidine-2-carboxamide], the DC50 in assay [1] was 100 to 500 nM; in assay [2], less than 100 nM. Moreover, the Dmax in assay [1] is less than 50%; in assay [2] it was 70 to 90%.
On the same counts, the results for `C[C@H](NC(=O)[C@@H]1C[C@@H](O)CN1C(=O)[C@@H](n1cc([C@H]2CC[C@H](CN3CCC(c4ccc5c(c4)-n4c(nc(=O)c6c(Cl)cccc64)C5(C)C)CC3)CC2)nn1)C(C)(C)C)c1ccc(-c2scnc2C#CCN2CCOCC2)cc1` [Compound B156, (2S,4R)-1-((R)-2-(4-((1r,4R)-4-((4-(4-chloro-7,7-dimethyl-5-oxo-5,7-dihydroindolo[1,2-a]quinazolin-10-yl)piperidin-1-yl)methyl)cyclohexyl)-1H-1,2,3-triazol-1-yl)-3,3-dimethylbutanoyl)-4-hydroxy-N-((S)-1-(4-(4-(3-morpholinoprop-1-yn-1-yl)thiazol-5-yl)phenyl)ethyl)pyrrolidine-2-carboxamide] are less than 100 nM, less than 100 nM, 50 to 69% and more than 90%.
In the same order, the values of `Cc1ncsc1-c1ccc([C@H](C)NC(=O)[C@@H]2C[C@@H](O)CN2C(=O)[C@H](C(C)C)n2cc(CCN3CCC(c4ccc5c(c4)-n4c(nc(=O)c6c(Cl)cccc64)C5(C)C)CC3)nn2)cc1` [Compound B36, (2S,4R)-1-((S)-2-(4-(2-(4-(4-chloro-7,7-dimethyl-5-oxo-5,7-dihydroindolo[1,2-a]quinazolin-10-yl)piperidin-1-yl)ethyl)-1H-1,2,3-triazol-1-yl)-3-methylbutanoyl)-4-hydroxy-N-((S)-1-(4-(4-methylthiazol-5-yl)phenyl)ethyl)pyrrolidine-2-carboxamide] are less than 100 nM, less than 100 nM, less than 50% and 70 to 90%.
On the same counts, the results for `Cc1ncsc1-c1ccc([C@H](CN2CCOCC2)NC(=O)[C@@H]2C[C@@H](O)CN2C(=O)[C@@H](c2cc(O[C@H]3CC[C@H](CN4CCC(c5ccc6c(c5)-n5c(nc(=O)c7c(Cl)cccc75)C65CCCCC5)CC4)CC3)no2)C(C)C)cc1` [Compound B158, (2S,4R)-1-((R)-2-(3-(((11,4R)-4-((4-(4′-chloro-5′-oxo-5′H-spiro[cyclohexane-1,7′-indolo[1,2-a]quinazolin]-10′-yl)piperidin-1-yl)methyl)cyclohexyl)oxy)isoxazol-5-yl)-3-methylbutanoyl)-4-hydroxy-N-((R)-1-(4-(4-methylthiazol-5-yl)phenyl)-2-morpholinoethyl)pyrrolidine-2-carboxamide] are less than 100 nM, less than 100 nM, more than 90% and more than 90%.
With `C[C@H](NC(=O)[C@@H]1C[C@@H](O)CN1C(=O)[C@@H](n1cc(C2CCC(CN3CCC(c4ccc5c(c4)-n4c(nc(=O)c6c(Cl)cccc64)C54CCCCC4)CC3)CC2)nn1)C(C)(C)C)c1ccc(-c2scnc2CCCN2CCOCC2)cc1` (stereo partly drawn) [Compound B108, (2S,4R)-1-((S)-2-(4-((11,4S)-4-((4-(4′-chloro-5′-oxo-5′H-spiro[cyclohexane-1,7′-indolo[1,2-a]quinazolin]-10′-yl)piperidin-1-yl)methyl)cyclohexyl)-1H-1,2,3-triazol-1-yl)-3,3-dimethylbutanoyl)-4-hydroxy-N-((S)-1-(4-(4-(3-morpholinopropyl)thiazol-5-yl)phenyl)ethyl)pyrrolidine-2-carboxamide], the DC50 in assay [1] and in assay [2] was 100 to 500 nM in each case. Moreover, the Dmax is 50 to 69% in assay [1] and more than 90% in assay [2].
On to `Cc1ncsc1-c1ccc([C@H](C)NC(=O)[C@@H]2C[C@@H](O)CN2C(=O)[C@@H](c2cc(OC3CCC(N4CCC(c5ccc6c(c5)-n5c(nc(=O)c7c(Cl)cccc75)C6(C)C)CC4)CC3)no2)C(C)C)cc1` (stereo partly drawn) [Compound B81, (2S,4R)-1-((R)-2-(3-((4-(4-(4-chloro-7,7-dimethyl-5-oxo-5,7-dihydroindolo[1,2-a]quinazolin-10-yl)piperidin-1-yl)cyclohexyl)oxy)isoxazol-5-yl)-3-methylbutanoyl)-4-hydroxy-N-((S)-1-(4-(4-methylthiazol-5-yl)phenyl)ethyl)pyrrolidine-2-carboxamide], for which the DC50 in assay [1] and in assay [2] was less than 100 nM in each case. The Dmax was less than 50% in assay [1] and more than 90% in assay [2].
